Laboratory results: patent publication US6506766B1 (Abbott Laboratories, priority 1998, dated 2003)

Assays:
[1] = target: T1, human progesterone receptor-A [PRA] isoform (Homo sapiens, UniProt P06401); experiment: Radioligand binding with human progesterone receptor cytosol ([3H]-progesterone competition); conditions: PRA cytosol expressed in insect SF21 cells, [3H]Prog ~0.8 nM, 4° C. overnight; Ki by Cheng-Prusoff, KL ~4.5 nM; read-out: Ki (nM) PR
T1 construct: host or cells: insect SF21 cells (baculovirus)
T1 sequence (P06401 1-769 isoform P06401-2): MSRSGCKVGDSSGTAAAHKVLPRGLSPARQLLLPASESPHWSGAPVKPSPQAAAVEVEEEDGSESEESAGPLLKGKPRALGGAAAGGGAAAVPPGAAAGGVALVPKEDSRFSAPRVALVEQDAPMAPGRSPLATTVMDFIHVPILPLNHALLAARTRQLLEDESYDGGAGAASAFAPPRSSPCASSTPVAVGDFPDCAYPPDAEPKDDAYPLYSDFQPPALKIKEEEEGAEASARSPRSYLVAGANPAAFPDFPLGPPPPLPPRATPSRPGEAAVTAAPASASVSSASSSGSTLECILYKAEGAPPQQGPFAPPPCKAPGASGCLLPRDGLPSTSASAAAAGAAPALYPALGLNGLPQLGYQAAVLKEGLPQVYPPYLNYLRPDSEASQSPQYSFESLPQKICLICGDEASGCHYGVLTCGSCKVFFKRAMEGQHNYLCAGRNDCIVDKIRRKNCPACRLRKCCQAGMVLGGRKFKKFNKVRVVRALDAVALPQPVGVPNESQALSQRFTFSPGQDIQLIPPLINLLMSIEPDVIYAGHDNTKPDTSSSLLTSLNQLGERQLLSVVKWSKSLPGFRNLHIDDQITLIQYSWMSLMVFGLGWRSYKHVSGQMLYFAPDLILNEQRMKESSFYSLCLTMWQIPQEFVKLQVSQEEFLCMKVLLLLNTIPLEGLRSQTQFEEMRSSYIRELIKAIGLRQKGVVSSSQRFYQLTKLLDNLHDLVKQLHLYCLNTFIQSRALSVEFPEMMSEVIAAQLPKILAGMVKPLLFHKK

[2] = target: T2, human glucocorticoid receptor-α [GRX] isoform (Homo sapiens, UniProt P04150); experiment: Radioligand binding with human glucocorticoid receptor cytosol ([3H]-dexamethasone competition); conditions: GRX cytosol expressed in insect SF21 cells, [3H]-Dex ~0.9 nM, 4° C. overnight; Ki by Cheng-Prusoff, KL ~[…]; read-out: Ki (nM) GR
T2 construct: host or cells: insect SF21 cells (baculovirus)
T2 sequence (P04150 1-777): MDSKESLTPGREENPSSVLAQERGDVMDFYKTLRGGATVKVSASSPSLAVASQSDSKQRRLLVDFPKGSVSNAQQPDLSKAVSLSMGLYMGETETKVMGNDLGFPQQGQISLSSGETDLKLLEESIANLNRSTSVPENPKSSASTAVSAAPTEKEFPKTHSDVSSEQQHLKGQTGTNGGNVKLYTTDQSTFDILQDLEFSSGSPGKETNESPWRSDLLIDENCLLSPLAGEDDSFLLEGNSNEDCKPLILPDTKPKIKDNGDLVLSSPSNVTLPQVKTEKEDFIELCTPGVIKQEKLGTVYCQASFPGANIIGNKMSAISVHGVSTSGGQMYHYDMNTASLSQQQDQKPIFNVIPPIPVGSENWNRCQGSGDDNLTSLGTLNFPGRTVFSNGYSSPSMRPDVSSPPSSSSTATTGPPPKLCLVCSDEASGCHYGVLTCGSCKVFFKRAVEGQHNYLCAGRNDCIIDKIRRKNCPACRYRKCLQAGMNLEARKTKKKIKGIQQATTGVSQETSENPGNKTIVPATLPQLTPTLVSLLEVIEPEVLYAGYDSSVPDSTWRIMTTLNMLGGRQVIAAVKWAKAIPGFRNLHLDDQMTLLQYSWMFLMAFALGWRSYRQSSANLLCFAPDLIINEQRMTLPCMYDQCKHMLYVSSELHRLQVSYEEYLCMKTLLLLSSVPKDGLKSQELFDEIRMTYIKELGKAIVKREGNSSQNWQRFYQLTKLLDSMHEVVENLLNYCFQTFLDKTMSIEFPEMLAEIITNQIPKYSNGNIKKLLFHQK

| Compound | Ki [1] | Ki [2] |
| --- | --- | --- |
| COc1c(O)ccc2c1-c1ccc3c(c1[C@H]([C@H]1C=C(C)CCC1)O2)C(C)=CC(C)(C)N3 (racemic) [Example 243, (+/−)(5S,3′R)2,5-Dihydro-9-hydroxy-10-methoxy-2,2,4-trimethyl-5-(1-methylcyclohexen-3-yl)-1H-[1]benzopyrano[3,4-f]quinoline] | 21.2 nM | 1.6 nM |
| COc1c(O)ccc2c1-c1ccc3c(c1C(c1c(F)c(F)c(F)c(F)c1F)O2)C(C)=CC(C)(C)N3 (racemic) [Example 269, (±)2,5-Dihydro-9-hydroxy-10-methoxy-2,2,4-trimethyl-5-(2,3,4,5,6-pentafluorophenyl)-1H-[1]benzopyrano[3,4-f]quinoline] | 2470 nM | 17.1 nM |
| COC(=O)C1=C[C@@H]([C@@H]2Oc3ccc(O)c(OC)c3-c3ccc4c(c32)C(C)=CC(C)(C)N4)CC1 (racemic) [Example 271, (+/−)2,5-Dihydro-9-hydroxy-10-methoxy-2,2,4-trimethyl-5(S)-(3(S)-1-methylcarboxylatecyclopenten-3-yl)-1H-[1]benzopyrano[3,4-f]quinoline] | 2290 nM | 0.82 nM |
| COc1c(O)ccc2c1-c1ccc3c(c1C(c1ccccc1C)O2)C(C)=CC(C)(C)N3 (racemic) [Example 275, (±)2,5-Dihydro-9-hydroxy-10-methoxy-2,2,4-trimethyl-5-(2-methylphenyl)-1H-[1]benzopyrano[3,4-f]quinoline] | 2870 nM | 11.7 nM |
| C=CCC1Oc2ccc(OC(=O)CNC(N)=O)c(OC)c2-c2ccc3c(c21)C(C)=CC(C)(C)N3 (racemic) [Example 432, (+/−)2,5-Dihydro-9-(N-carbamoyl-2-aminoacetoxy)-10-methoxy-2,2,4-trimethyl-5-allyl-1H-[1]benzopyrano[3,4-f]quinoline] | 207 nM | 1.4 nM |
| C=CCC1Oc2ccc(OCCCC(=O)OCC)c(OC)c2-c2ccc3c(c21)C(C)=CC(C)(C)N3 (racemic) [Example 433, (+/−)2,5-Dihydro-9-(4-ethoxy-4-oxo-butoxy)-10-methoxy-2,2,4-trimethyl-5-allyl-1H-[1]benzopyrano[3,4-f]quinoline] | 1410 nM | 30.2 nM |
| COc1cccc2c1-c1ccc3c(c1[C@H]([C@H]1C=C(CO)CCC1)O2)C(C)=CC(C)(C)N3 (relative stereo) [Example 148] | ≥ 10000 nM | 2.8 nM |
| COc1cccc2c1-c1ccc3c(c1[C@@H]([C@H]1C=C(CO)CCC1)O2)C(C)=CC(C)(C)N3 (relative stereo) [Example 149] | 4060 nM | 2.7 nM |
| COc1cccc2c1-c1ccc3c(c1[C@@H]([C@H]1C=C(CN(C)C)CCC1)O2)C(C)=CC(C)(C)N3 (relative stereo) [Example 165] | ≥ 10000 nM | 14 nM |
| COc1cccc2c1-c1ccc3c(c1[C@@H]([C@H]1C=C(CN(C)S(C)(=O)=O)CCC1)O2)C(C)=CC(C)(C)N3 (relative stereo) [Example 168, rel (5R, 3′R) 2,5-Dihydro-10-methoxy-5-(1-(N-methyl-N-methylsulfonylamino)methyl-3-cyclohexenyl)-2,2,4-trimethy-1H-[1]benzopyrano[3,4-f]quinoline] | ≥ 10000 nM | 2.5 nM |
| COc1c(O)ccc2c1-c1ccc3c(c1[C@H]([C@H]1C=C(CO)CCC1)O2)C(C)=CC(C)(C)N3 (relative stereo) [Example 242] | 3420 nM | 0.53 nM |
| COCC1=C[C@H]([C@@H]2Oc3ccc(O)c(OC)c3-c3ccc4c(c32)C(C)=CC(C)(C)N4)CCC1 (relative stereo) [Example 244, rel-(5S,3′R)-9-Hydroxy-5-[1-methoxymethyl-3-cyclohexenyl]-10-methoxy-2,2,4-trimethyl-2,5-dihydro-1H-[1]benzopyrano[3,4-f]quinoline] | 804 nM | 6.3 nM |
| COc1cccc2c1-c1ccc3c(c1C(c1ccccc1)O2)C(C)=CC(C)(C)N3 (single isomer, unassigned) [Example 25, (±)-2,5-Dihydro-10-methoxy-2,2,4-trimethyl-5-phenyl-1H-[1]benzopyrano-[3,4-f]quinoline] | ≥ 10000 nM | 240 nM |
| COc1cccc2c1-c1ccc3c(c1C(c1ccccc1)O2)C(C)=CC(C)(C)N3 (single isomer, unassigned) [Example 26, (±)-2,5-Dihydro-10-methoxy-2,2,4-trimethyl-5-phenyl-1H-[1]benzopyrano[3,4-f]quinoline] | 13400 nM | 2.1 nM |
| COc1cccc2c1-c1ccc3c(c1C(C1CCCCC1=O)O2)C(C)=CC(C)(C)N3 (single isomer, unassigned) [Example 142, 2,5-Dihydro-10-methoxy-5-(1-oxo-2-cyclohexyl)-2,2,4-trimethyl-1H-[1]benzopyrano[3,4-f]quinoline] | ≥ 10000 nM | 51 nM |
| COC(=O)C1=CC(C2Oc3ccc(O)c(OC)c3-c3ccc4c(c32)C(C)=CC(C)(C)N4)CCC1 (single isomer, unassigned) [Example 288] | 4080 nM | 0.86 nM |

Now from value to molecule:

| Ki [1] | Ki [2] | Compound |
| --- | --- | --- |
| 27.8 nM | 4.6 nM | COc1c(C)ccc2c1-c1ccc3c(c1C(C1C=C(C)CCC1)O2)C(C)=CC(C)(C)N3 (racemic) [Example 307, (+/−)2,5-Dihydro-9-methyl-10-methoxy-2,2,4-trimethyl-5-(1-methylcyclohexen-3-yl)-1H-[1]benzopyrano[3,4-f]quinoline] |
| 382 nM | 4.4 nM | CC1=CC(C)(C)Nc2ccc3c(c21)C(c1ccccc1)Oc1cccc(Cl)c1-3 (racemic) [Example 310, (+/−)2,5-Dihydro-10-chloro-2,2,4-trimethyl-5-phenyl-1H-[1]benzopyrano[3,4-f]quinoline] |
| 76.7 nM | 0.46 nM | C=CCC1Oc2ccc(OC(=O)CCCNC(C)=O)c(OC)c2-c2ccc3c(c21)C(C)=CC(C)(C)N3 (racemic) [Example 344, (+/−)2,5-Dihydro-9-(4-acetamidobutanoyloxy)-10-methoxy-2,2,4-trimethyl-5-allyl-1H-[1]benzopyranol[3,4-f]quinoline] |
| 3080 nM | 51 nM | C=CCC1Oc2ccc(OCC#N)c(OC)c2-c2ccc3c(c21)C(C)=CC(C)(C)N3 (racemic) [Example 377, (+/−)2,5-Dihydro-9-cyanomethoxy-10-methoxy-2,2,4-trimethyl-5-allyl-1H-[1]benzopyrano[3,4-f]quinoline] |
| 204 nM | 0.91 nM | C=CCC1Oc2ccc(OC(=O)CCNC(C)=O)c(OC)c2-c2ccc3c(c21)C(C)=CC(C)(C)N3 (racemic) [Example 428, (+/−)2,5-Dihydro-9-(3-acetamido-propanoyloxy)-10-methoxy-2,2,4-trimethyl-5-allyl-1H-[1]benzopyrano[3,4-f]quinoline] |
| 29.1 nM | 4.1 nM | CC1=CC(C)(C)Nc2ccc3c(c21)C(Cc1ccccc1)Oc1ccc(O)c(Cl)c1-3 (racemic) [Example 429, (+/−)2,5-Dihydro-9-hydroxy-10-chloro-2,2,4-trimethyl-5-benzyl-1H-[1]benzopyrano[3,4-f]quinoline] |
| 123 nM | 0.96 nM | C=CCC1Oc2ccc(OC(=O)CCC(C)=O)c(OC)c2-c2ccc3c(c21)C(C)=CC(C)(C)N3 (racemic) [Example 434, (+/−)2,5-Dihydro-9-(4-oxo-pentanoyloxy)-10-methoxy-2,2,4-trimethyl-5-allyl-1H-[1]benzopyrano[3,4-f]quinoline] |
| 3740 nM | 9.9 nM | COC(=O)C1=CC(C2Oc3ccc(O)c(OC)c3-c3ccc4c(c32)C(C)=CC(C)(C)N4)CCC1 (single isomer, unassigned) [Example 415] |
